Results published in US12202821B2, “Herbicidal compounds” (SYNGENTA CROP PROTECTION AG, priority 2019, dated 2025).

Assays:
Assay type in all cases: in vivo
AMAPA [1] = experiment: Pre-emergence biological efficacy; settings: 312 h, evaluated after 13 days, read-out: damage to plant (100=total damage to plant; 0=no damage to plant), AMAPA
Description: (§1) Pre-Emergence Biological Efficacy
(§2) Seeds of weeds and/or crops were sown in standard soil in pots. After cultivation for one day under controlled conditions in a glasshouse (at 24/16° C., day/night; 14 hours light; 65% humidity), the plants were sprayed with an aqueous spray solution derived from the formulation of the technical active ingredient in acetone/water (50:50) solution containing 0.5% Tween 20 (polyoxyethylene sorbitan monolaurate, CAS RN 9005-64-5) to give the desired final dose of test compound.
(§3) The test plants were then grown under controlled conditions in the glasshouse (at 24/16° C., day/night; 14 hours light; 65% humidity) and watered twice daily. After 13 days the test was evaluated (100=total damage to plant; 0=no damage to plant).

ECHCG [2] = experiment: Pre-emergence biological efficacy; settings: Echinochloa crus-galli, 312 h, evaluated after 13 days, read-out: damage to plant (100=total damage to plant; 0=no damage to plant), ECHCG
Description: as §1, §2, §3

EPHHL [3] = experiment: Pre-emergence biological efficacy; settings: 312 h, evaluated after 13 days, read-out: damage to plant (100=total damage to plant; 0=no damage to plant), EPHHL
Description: as §1, §2, §3

IPOHE [4] = experiment: Pre-emergence biological efficacy; settings: Ipomoea hederacea, 312 h, evaluated after 13 days, read-out: damage to plant (100=total damage to plant; 0=no damage to plant), IPOHE
Description: as §1, §2, §3

LOLPE [5] = experiment: Pre-emergence biological efficacy; settings: 312 h, evaluated after 13 days, read-out: damage to plant (100=total damage to plant; 0=no damage to plant), LOLPE
Description: as §1, §2, §3

SETFA [6] = experiment: Pre-emergence biological efficacy; settings: Setaria faberi, 312 h, evaluated after 13 days, read-out: damage to plant (100=total damage to plant; 0=no damage to plant), SETFA
Description: as §1, §2, §3

AMAPA [7] = experiment: Post-emergence biological efficacy; settings: 312 h, evaluated after 13 days, read-out: damage to plant (100=total damage to plant; 0=no damage to plant), AMAPA
Description: (§4) Post-Emergence Biological Efficacy
as §2, with “8 days” for “one day”
(§5) The test plants were then grown on under controlled conditions in a glasshouse (at 24/16° C., day/night; 14 hours light; 65% humidity) and watered twice daily. After 13 days the test was evaluated (100=total damage to plant; 0=no damage to plant).

CHEAL = experiment: Post-emergence biological efficacy; settings: Chenopodium album, 312 h, evaluated after 13 days, read-out: damage to plant (100=total damage to plant; 0=no damage to plant), CHEAL
Description: as §4
as §2, with “8 days” for “one day”
as §5

DIGSA = experiment: Post-emergence biological efficacy; settings: Digitaria sanguinalis, 312 h, evaluated after 13 days, read-out: damage to plant (100=total damage to plant; 0=no damage to plant), DIGSA
Description: as §4
as §2, with “8 days” for “one day”
as §5

ECHCG [8] = experiment: Post-emergence biological efficacy; settings: Echinochloa crus-galli, 312 h, evaluated after 13 days, read-out: damage to plant (100=total damage to plant; 0=no damage to plant), ECHCG
Description: as §4
as §2, with “8 days” for “one day”
as §5

ELEIN = experiment: Post-emergence biological efficacy; settings: 312 h, evaluated after 13 days, read-out: damage to plant (100=total damage to plant; 0=no damage to plant), ELEIN
Description: as §4
as §2, with “8 days” for “one day”
as §5

EPHHL [9] = experiment: Post-emergence biological efficacy; settings: 312 h, evaluated after 13 days, read-out: damage to plant (100=total damage to plant; 0=no damage to plant), EPHHL
Description: as §4
as §2, with “8 days” for “one day”
as §5

IPOHE [10] = experiment: Post-emergence biological efficacy; settings: Ipomoea hederacea, 312 h, evaluated after 13 days, read-out: damage to plant (100=total damage to plant; 0=no damage to plant), IPOHE
Description: as §4
as §2, with “8 days” for “one day”
as §5

LOLPE [11] = experiment: Post-emergence biological efficacy; settings: 312 h, evaluated after 13 days, read-out: damage to plant (100=total damage to plant; 0=no damage to plant), LOLPE
Description: as §4
as §2, with “8 days” for “one day”
as §5

SETFA [12] = experiment: Post-emergence biological efficacy; settings: Setaria faberi, 312 h, evaluated after 13 days, read-out: damage to plant (100=total damage to plant; 0=no damage to plant), SETFA
Description: as §4
as §2, with “8 days” for “one day”
as §5

| Structure (SMILES) | pest or weed control at 250 g/ha (AMAPA [1]) [%] | pest or weed control at 250 g/ha (ECHCG [2]) [%] | pest or weed control at 250 g/ha (EPHHL [3]) [%] | pest or weed control at 250 g/ha (IPOHE [4]) [%] | pest or weed control at 250 g/ha (LOLPE [5]) [%] | pest or weed control at 250 g/ha (SETFA [6]) [%] | pest or weed control at 250 g/ha (AMAPA [7]) [%] | pest or weed control at 250 g/ha (CHEAL) [%] | pest or weed control at 250 g/ha (DIGSA) [%] | pest or weed control at 250 g/ha (ECHCG [8]) [%] | pest or weed control at 250 g/ha (ELEIN) [%] | pest or weed control at 250 g/ha (EPHHL [9]) [%] | pest or weed control at 250 g/ha (IPOHE [10]) [%] | pest or weed control at 250 g/ha (LOLPE [11]) [%] | pest or weed control at 250 g/ha (SETFA [12]) [%] |
| --- | --- | --- | --- | --- | --- | --- | --- | --- | --- | --- | --- | --- | --- | --- | --- |
| CCOC(=O)C1(C)CC(c2cc(-n3c(=O)n(C)c(=S)n(C)c3=O)c(F)cc2Cl)=NO1 (stereo not shown) [Compound 47, ethyl 3-[2-chloro-5-(3,5-dimethyl-2,6-dioxo-4-thioxo-1,3,5-triazinan-1-yl)-4-fluoro-phenyl]-5-methyl-4H-isoxazole-5-carboxylate] | 100 | 100 | 100 | 100 | 70 | 100 | 100 | 100 | 100 | 100 | 100 | 100 | 100 | 100 | 100 |
| Cn1c(=S)n(C)c(=O)n(-c2cc(C3=NOC(C)(CO)C3)c(Cl)cc2F)c1=O (stereo not shown) [Compound 49, 3-[4-chloro-2-fluoro-5-[5-(hydroxymethyl)-5-methyl-4H-isoxazol-3-yl]phenyl]-1,5-dimethyl-6-thioxo-1,3,5-triazinane-2,4-dione] | 100 | 90 | 100 | 90 | 90 | 100 | 100 | 100 | 90 | 70 | 90 | 100 | 100 | 60 | 100 |
| Cn1c(=S)n(C)c(=O)n(-c2cc(C3=NOC(C)(C(N)=O)C3)c(Cl)cc2F)c1=O (stereo not shown) [Compound 308, 3-[2-chloro-5-(3,5-dimethyl-2,6-dioxo-4-thioxo-1,3,5-triazinan-1-yl)-4-fluoro-phenyl]-5-methyl-4H-isoxazole-5-carboxamide] | 100 | 10 | 80 | 50 | 60 | 90 | 100 | 100 | 100 | 100 | 100 | 90 | 100 | 90 | 100 |
| COC(=O)C1(C(F)(F)F)CC(c2cc(-n3c(=O)n(C)c(=S)n(C)c3=O)c(F)cc2Cl)=NO1 (stereo not shown) [Compound 262, Methyl 3-[2-chloro-5-(3,5-dimethyl-2,6-dioxo-4-thioxo-1,3,5-triazinan-1-yl)-4-fluoro-phenyl]-5-trifluoromethyl-4H-isoxazole-5-carboxylate] | – | 30 | 0 | 0 | 30 | 50 | 40 | 30 | 50 | 20 | 40 | 60 | 50 | 0 | 30 |
| Cn1c(=S)n(C)c(=O)n(-c2cc(C3=NOC(C)(COS(C)(=O)=O)C3)c(Cl)cc2F)c1=O (stereo not shown) [Compound 53, [3-[2-chloro-5-(3,5-dimethyl-2,6-dioxo-4-thioxo-1,3,5-triazinan-1-yl)-4-fluoro-phenyl]-5-methyl-4H-isoxazol-5-yl]methyl methanesulfonate] | 100 | 60 | – | 0 | 70 | 100 | 90 | 90 | 70 | 30 | 80 | 90 | 80 | 40 | 40 |
